# Biological target: T1, cloned human CCR8 receptor stably expressed in L1.2 cells (Homo sapiens, UniProt P51685)
# T1 construct: expressed in transfected cells
# Experiment: whole cell binding screen: inhibition of biotinylated human I309 binding to CCR8 (FMAT 8100 HTS)
# Conditions: Ki of compounds to inhibit I-309 binding to CCR8, L1.2/hCCR8 cells, biotinylated human I-309, 10 point concentration response starting at 10 μM
# Description: This whole cell binding screen evaluates the ability of compounds to inhibit biotinlyated human I309 binding to the cloned human CCR8 receptor stably expressed in L1.2 cells. Human CCR8 gene was amplified by PCR using PFU polymerase under standard conditions from human genomic DNA purchased from Stratagene. The PCR primers used were:
# The 5′ and 3′ primers contained flanking enzyme sites (Bam Hi and Not 1,respectively), which were used to subclone the gene into pcDNA3.1. […] The CCR8 vector was then transfected into L1.2 cells (murine pre-B cells) by electroporation.
# Compounds were screened using the FMAT™ 8100 HTS System (purchased from Applied Biosystems).
# A suspension was prepared of L1.2/hCCR8 cells at 4.0×10^5 cells/mL in a binding buffer (Buffer consisting of Hanks Balanced Salt Solution (without phenol red), 10 mM HEPES, 0.1% Fatty Acid Free BSA, 0.02% Sodium Azide).
# Dilution series of 10 mM stock concentrations of the test compounds were prepared in DMSO and further diluted into binding buffer defined above) to three times the final assay concentration.
# 10 point concentration response curve is constructed for each compound, starting at 10 μM (final assay concentration in Binding Buffer). […] The components were mixed in wells by covering the plate with aluminum foil and rotating for 0.5 hours. […] Average fluorescence reported for each concentration was normalized to percent inhibition based on negative (no inhibitor) and positive (100 nM excess unlabeled I309 (R and D Systems)) controls.
# T1 sequence (P51685 whole entry): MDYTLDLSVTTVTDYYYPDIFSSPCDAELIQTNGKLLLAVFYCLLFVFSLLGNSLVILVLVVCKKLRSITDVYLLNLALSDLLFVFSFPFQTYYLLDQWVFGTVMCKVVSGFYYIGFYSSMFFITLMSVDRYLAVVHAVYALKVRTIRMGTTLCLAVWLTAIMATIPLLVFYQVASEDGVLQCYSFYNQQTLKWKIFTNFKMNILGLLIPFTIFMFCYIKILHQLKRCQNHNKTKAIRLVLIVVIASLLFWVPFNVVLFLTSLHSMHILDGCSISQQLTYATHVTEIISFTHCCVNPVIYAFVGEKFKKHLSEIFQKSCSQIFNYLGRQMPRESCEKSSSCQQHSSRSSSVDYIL
row,Compound,Ki [nM]
1,"Cc1ccccc1C(=O)Nc1ccc(S(=O)(=O)NC2CCN(C(=N)N3CCCC3)CC2)c2ccccc12 [Compound C-40, N-{4-[1-(Imino-pyrrolidin-1-yl-methyl)-piperidin-4-ylsulfamoyl]-naphthalen-1-yl}-2-methyl-benzamide]",< 500
2,"CCOC(=O)N1CCC(NS(=O)(=O)c2cccc3c(NC(=O)c4ccccc4)cccc23)CC1 [Compound H-6, 4-(5-Benzoylamino-naphthalene-1-sulfonylamino)-piperidine-1-carboxylic acid ethylester]",< 500
3,"CCNC(=O)N1CCC(NS(=O)(=O)c2ccc(C(=O)Nc3ccccc3C)c3ccccc23)CC1 [Compound F-10, 4-(4-o-Tolylcarbamoly-naphthalene-1-sulfonylamino)-piperidine-1-carboxylic acid ethylamide]",< 500

# Same assay, conditions: L1.2/hCCR8 cells, biotinylated human I-309, 10 point concentration response starting at 10 μM; read-out: Ki of compounds to inhibit I-309 binding to CCR8
row,Compound,Ki [nM]
1,"CCOC(=O)N1CC[C@H](NS(=O)(=O)c2ccc(NC(=O)c3ccccc3C)c3ccccc23)[C@H](C)C1 (racemic) [Compound C-136, (±)-cis-3-Methyl-4-[4-(2-methyl-benzoylamino)-naphthalene-1-sulfonylamino]-piperidine-1-carboxylic acid ethyl ester]",< 500
2,"CCOC(=O)N1CC[C@H](NS(=O)(=O)c2ccc(NC(=O)c3ccccc3C)c3ccccc23)[C@H](CO)C1 (racemic) [Compound C-81, (±)-(cis)-3—Hydroxymethyl-4-[4-(2-methyl-benzoylamino)-naphthalene-1-sulfonylamino]-piperidine-1-carboxylic acid ethyl ester]",< 500
3,"Cc1ccccc1C(=O)Nc1ccc(S(=O)(=O)NC2CCN(C(=O)CN(C)C)CC2)c2ccccc12 [Compound C-55, N-{4-[1-(2-Dimethylamino-acetl)-piperidin-4-ylsulfamoyl]-naphthalen-1-yl}-2-methyl-benzamide]",< 500
4,"CCOC(=O)[C@@H]1CN(Cc2ccccc2)CC[C@@H]1NS(=O)(=O)c1ccc(NC(=O)c2ccccc2C)c2ccccc12 (racemic) [Compound A-47, (±)-(cis)-1-Benzyl-4-[4-(2-methyl-benzoylamino)-naphthalene-1-sulfonylamino]-piperidine-3-carboxylic acid ethyl ester]",< 30000
5,"CCCC(=O)N1CC[C@H](NS(=O)(=O)c2ccc(NC(=O)c3ccccc3C)c3ccccc23)[C@H](C(=O)O)C1 (racemic) [Compound C-78, (±)-(cis)-1-Butyryl-4-[4-(2-methyl-benzoylamino)-naphthalene-1-sulfonylamino]-piperidine-3-carboxylic acid]",< 30000
6,"CCOC(=O)N1CCCC(NS(=O)(=O)c2ccc(NC(=O)c3ccccc3C)c3c2CCCC3)C1 (racemic) [Compound E-31, (±)-3-[4-(2-Methyl-benzoylamino)-5,6,7,8-tetrahydro-naphthalene-1-sulfonylamino]-piperidine-1-carboxylic acid ethyl ester]",< 500
7,"Cc1ccccc1C(=O)Nc1ccc(S(=O)(=O)NC2CCN(C(=O)[C@H](C)N)CC2)c2ccccc12 [Compound C-120, (S)-N-{4-[1-(2-Amino-propionyl)-piperidin-4-ylsulfamoyl]-naphthalen-1-yl}-2-methyl-benzamide]",< 500
8,"CCCC(=O)N1CCC(NS(=O)(=O)c2ccc(NC(=O)C3CCN(C)CC3)c3ccccc23)CC1 [Compound D-24, 1-Methyl-piperidine-4-carboxylic acid [4-(1-butyryl-piperidin-4-ylsulfamoyl)-naphthalen-1-yl]-amide]",< 30000
9,"O=C(Nc1ccc(S(=O)(=O)Nc2cccnc2)c2ccccc12)c1ccccc1 [Compound A-16, N-[4-(Pyridin-3-ylsulfamoyl)-naphthalen-1-yl]-benzamide]",< 30000
10,"Cc1ccccc1C(=O)Nc1ccc(S(=O)(=O)N[C@H]2CCN(Cc3ccccc3)C[C@H]2C)c2c1CCCC2 (racemic) [Compound E-13, (±)-cis-N-[4-(1-Benzyl-3-methyl-piperidin-4-ylsulfamoyl)-5,6,7,8-tetrahydro-naphthalen-1-yl]-2-methyl-benzamide]",< 1000
11,"O=C(Nc1ccc(S(=O)(=O)Nc2ccncc2)c2ccccc12)c1ccccc1 [Compound A-14, N-[4-(Pyridin-4-ylsulfamoyl)-naphthalen-1-yl]-benzamide]",< 500
12,"CCCC(=O)N1CC[C@H](NS(=O)(=O)c2ccc(NC(=O)c3ccccc3C)c3ccccc23)[C@H](CO)C1 (racemic) [Compound C-80, (±)-(cis)-N-[4-(1-Butryl-3-hydroxymethyl-piperidin-4-ylsulfamoyl)-naphthalen-1-yl]-2-methyl-benzamide]",< 500
13,"CCCC(=O)N1CCC(NS(=O)(=O)c2ccc(NC(=O)c3ccc(Cl)cc3Cl)c3ccccc23)CC1 [Compound C-111, N-[4-(1-Butyryl-piperidin-4-ylsulfamoyl)-naphthalen-1-yl]-2,4-dichloro-benzamide]",< 500

# Results, then the compound that gave them:
row,Ki [nM],Compound
1,< 1000,"CCOC(=O)N1CCC(NS(=O)(=O)c2cccc3c(NC(=O)c4cc(C)oc4C)cccc23)CC1 [Compound H-20, 4-{5-[(2,5-Dimethyl-furan-3-carbonyl)-amino]-naphthalene-1-suffonylamino}-piperidine-1-carboxylic acid ethyl ester]"
2,< 1000,"Cc1ccccc1C(=O)Nc1ccc(S(=O)(=O)N[C@H]2CCN(Cc3ccccc3)C[C@H]2C)c2c1CCC2 (racemic) [Compound H-74, (±)-cis-N-[7-(1-Benzyl-3-methyl-piperidin-4-ylsulfamoyl)-indan-4-yl]-2-methyl-benzamide]"
3,< 500,"CCOC(=O)N1CCC(NS(=O)(=O)c2ccc(CNC(=O)c3cccc(C)c3C)c3ccccc23)CC1 [Compound G-2, 4-{4-[(2,3-Dimethyl-benzoylamino)-methyl]-naphthalene-1-sulfonylamino}-piperidine-1-carboxylic acid ethyl ester]"
4,< 500,"CN(C)C(=O)N1CCC(NS(=O)(=O)c2ccc(C(=O)Nc3ccccc3Cl)c3ccccc23)CC1 [Compound F-23, 4-[4-(2-Chloro-phenylcarbamoyl)-naphthalene-1-sulfonylamino]-piperidine-1-carboxylic acid dimethylamide]"
5,< 500,"CCCC(=O)N1CCC(NS(=O)(=O)c2cccc3c(C(=O)Nc4ccccc4C)cccc23)CC1 [Compound H-39, 5-(1-Butyryl-piperidin-4-ylsulfamoyl)-naphthalene-1-carboxylic acid o-tolylamide]"
6,< 30000,"CCOC(=O)N1CCC(NS(=O)(=O)c2ccc(CNCc3ncc[nH]3)c3ccccc23)CC1 [Compound G-9, 4-(4-{[(lH-Imidazol-2-ylmethyl)-amino]-methyl}-naphthalene-1-sulfonylamino)-piperidine-1-carboxylic acid ethyl ester]"
7,< 1000,"Cc1ccccc1C(=O)Nc1ccc(S(=O)(=O)NC2CCN(C(=O)N(C)C)C2)c2c1CCC2 (racemic) [Compound H-73, (±)-3-[7-(2-Methyl-benzoylamino)-indane-4-sulfonylamino]-pyrrolidine-1-carboxylic acid dimethylamide]"
8,< 30000,"CCCC(=O)N1CCC(NS(=O)(=O)c2cc3c(c(N4C(=O)c5ccccc5C4=O)c2)CCCC3)CC1 [Compound H-60, 4-(1,3-Dioxo-1,3-dihydro-isoindol-2-yl)-5,6,7,8-tetrahydro-naphthalene-2-sulfonic acid (1-butyryl-piperidin-4-yl)-amide]"
9,< 500,"CCOC(=O)N1CCC(NS(=O)(=O)c2ccc(CN(CC)C3CCCCC3)c3ccccc23)CC1 [Compound G-20, 4-{4-[(Cyclohexyl-ethyl-amino)-methyl]-naphthalene-1-sulfonylamino}-piperidine-1-carboxylic acid ethyl ester]"
10,< 500,"CN(C)C(=O)N1CCC(NS(=O)(=O)c2ccc(C(=O)NC3CCOCC3)c3ccccc23)CC1 [Compound F-21, 4-[4-(Tetrahydro-pyran-4-ylcarbamoyl)-naphthalene-1-sulfonylamino]-piperidine-1-carboxylic acid dimethylamide]"
11,< 500,"O=C(Nc1cccc2c(S(=O)(=O)NC3CCCCC3)cccc12)c1ccccc1 [Compound H-5, N-(5-Cyclohexylsulfamoyl-naphthalen-1-yl)-benzamide]"
12,< 500,"CCOC(=O)N1CCC(NS(=O)(=O)c2cccc3c(NC(=O)c4ccc(C)s4)cccc23)CC1 [Compound H-16, 4-{5-[(5-Methyl-thiophene-2-carbonyl)-amino]-naphthalene-1-sulfonylamino}-piperidine-1-carboxylic acid ethyl ester]"
13,< 500,"CC1CCCCC1NC(=O)c1cccc2c(S(=O)(=O)NC3CCN(C(=O)N(C)C)CC3)cccc12 (racemic) [Compound H-33, (±)-4-[5-(2-Methyl-cyclohexylcarbamoyl)-naphthalene-1-sulfonylamino]-piperidine-1-carboxylic acid dimethylamide]"
14,< 500,"CCOC(=O)N1CCC(NS(=O)(=O)c2cccc3c(NC(=O)c4cc5ccccc5s4)cccc23)CC1 [Compound H-18, 4-{5-[(Benzo[b]thiophene-2-carbonyl)-amino]-naphthalene-1-suffonylamino}-piperidine-1-carboxylic acid ethyl ester]"
